Patent publication US20250270202A1, “SUBSTITUTED 4-AMINOISOINDOLINE COMPOUND, PREPARATION METHOD THEREFOR, PHARMACEUTICAL COMPOSITION THEREOF, AND USE THEREOF” (SHANGHAI INSTITUTE OF MATERIA MEDICA, CHINESE ACADEMY OF …, priority 2022, published 2025)
Where two headings read alike, the source gives them in different places.

Key:
Type in all cases: cell-based
MM.1S cells = assay: Effect of the compound on MM.1S cell proliferation (MTS, 7 days); conditions: Homo sapiens, MM1.S
Experimental: MM.1S cells were cultured in 1640 medium supplemented with 10% fetal bovine serum, then collected and diluted to the desired cell concentration after 7 days of treatment. A total of 180 μL of cell suspension was added to each well in a 96-well cell plate, ensuring 20,000 cells per well. For the control group, 20 μL of 0.2% DMSO was added to each well. Compounds were diluted in a 5-step gradient from a 10 mM stock solution, and 20 μL of each dilution was added to the compound-containing wells (with a final DMSO concentration of 0.2%). The cells were incubated in a 37° C., 5% CO2 incubator for 7 days. Afterward, 20 μL of the MTS reagent (Promega, G5430) was added to each well, followed by incubation for 3-4 hours in a 37° C., 5% CO2 incubator. Absorbance at 490 nm was measured using a microplate reader, with 690 nm absorbance as the background. The final raw data was calculated as OD490-OD690. The compound inhibition rate was calculated using the formula: […]
The IC50 for the compound's proliferative inhibition was fitted using GraphPad Prism 5.0. The experiment was repeated three times, and the average and standard deviation were calculated using three parallel experiments per trial.

Mino cells = assay: Inhibition of cell proliferation of Mino cells (MTS, 3 days); conditions: Homo sapiens, MINO
Experimental: Mino cells were cultured with RPMI-1640 medium supplemented with 15% fetal bovine serum, and collected. The cell concentration was diluted according to a 3-day treatment period, and 90 μL of the cell suspension was added to each well of a 96-well plate, resulting in 8000 cells per well. For control wells, 10 μL of DMSO at a final concentration of 0.2% was added. The compounds were diluted in a 5-fold gradient from a 10 mM stock solution, and 10 μL of each compound solution was added to the experimental wells (with a final DMSO concentration of 0.2%). The cells were incubated in a 37° C., 5% CO2 incubator for 3 days. After preparing the reaction mixture using the MTS reagent kit (Promega, G5430), 20 μL was added to each well, and the cells were incubated for 3-4 hours at 37° C., 5% CO2.
The absorbance at 490 nm was read using a microplate reader, with the absorbance at 690 nm used as the background. The final raw data was calculated as OD490-OD690. The inhibition rate of the compounds was calculated using the formula: Inhibition rate=(OD DMSO−OD compound)/(OD DMSO−OD blank)×100%. The IC50 values for cell proliferation inhibition of the compounds were fitted using GraphPad Prism 5.0. The experiment was repeated three times, with the average and standard deviation calculated from three parallel experiments each time.

MV-4-11 cells = assay: Inhibition of MV-4-11 cell proliferation (MTS, 7 days); conditions: Homo sapiens
Experimental: MV-4-11 cells were cultured in IMDM with 10% fetal bovine serum, collected, and diluted to the appropriate cell concentration for a 7-day treatment period. A 96-well plate was used, and 180 μL of cell suspension was added to each well, resulting in a cell count of 2,000 per well. For the control wells, 20 μL of DMSO at a final concentration of 0.2% was added. The compounds were diluted from a 10 mM stock solution in a five-fold gradient, and 20 μL was added to the compound wells (with a final DMSO concentration of 0.2%). The cells were incubated in a 37° C., 5% CO2 incubator for 7 days. After preparing the reaction solution using the MTS reagent kit (Promega, G5430), 20 μL was added to each well, and the cells were incubated in the incubator for 3-4 hours. The absorbance at 490 nm was measured using a microplate reader, with the absorbance at 690 nm as the background value. The final data was calculated as OD490-OD690. The inhibition rate of the compounds was calculated using the formula: […]
The IC50 values for proliferation inhibition were calculated using GraphPad Prism 5.0. The experiments were repeated three times, with three parallel experiments for each, and the mean and standard deviation were calculated.
The cell activity test results are shown in Table 3: A indicates IC50<1 μM, B indicates 1 µM≤IC50≤20 μM, and C indicates IC50>20 μM.

[1] = 168 h, 7 days, MTS, Table 1, read-out: MM.1S Cells Inhibition Activity IC50
[2] = Table 4, read-out: Inhibitory Activity of Compounds on Cell Proliferation MM.1S IC50
[3] = 72 h, 3 days, MTS, Table 2, read-out: Mino Cells Inhibition Activity IC50
[4] = Table 4, read-out: Inhibitory Activity of Compounds on Cell Proliferation Mino IC50
[5] = MV4-11, 168 h, 7 days, MTS, Table 3, read-out: MV-4-11 Cells Inhibition Activity IC50
[6] = MV4-11, Table 4, values in nM, read-out: Inhibitory Activity of Compounds on Cell Proliferation MV-4-11 IC50

IC50 (MM.1S cells; [1]) [nM] | IC50 (MM.1S cells; [2]) [nM] | IC50 (MV-4-11 cells; [5]) [nM] | IC50 (MV-4-11 cells; [6]) [nM] | IC50 (MV-4-11 cells; MV4-11, Table 4, values in μM, read-out: Inhibitory Activity of Compounds on Cell Proliferation MV-4-11 IC50) [nM] | Structure (SMILES) | IC50 (Mino cells; [3]) [nM] | IC50 (Mino cells; [4]) [nM]
30 to 150 | – | < 1000 | – | – | O=C1CCC(N2C(=O)c3cccc(NCc4cnc(C5CCN(Cc6ccc(F)cc6)CC5)o4)c3C2=O)C(=O)N1 (stereo not drawn) [Example 12] | > 120 | –
< 15 | – | 1000 to 20000 | – | – | COc1cccc(-c2ncc(CNc3cccc4c3C(=O)N(C3CCC(=O)NC3=O)C4=O)o2)c1 (stereo not drawn) [Example 17] | 60 to 120 | –
< 15 | – | < 1000 | – | – | Cc1ccc(-c2ncc(CNc3cccc4c3C(=O)N(C3CCC(=O)NC3=O)C4=O)o2)cc1 (stereo not drawn) [Example 19] | < 60 | –
< 15 | – | 1000 to 20000 | – | – | Cc1ccccc1-c1ncc(CNc2cccc3c2C(=O)N(C2CCC(=O)NC2=O)C3=O)o1 (stereo not drawn) [Example 21] | > 120 | –
< 15 | – | < 1000 | – | – | O=C1CCC(N2C(=O)c3cccc(NCc4cnc(-c5ccc(F)cc5)o4)c3C2=O)C(=O)N1 (stereo not drawn) [Example 26] | < 60 | –
< 15 | – | < 1000 | – | – | O=C1CCC(N2C(=O)c3cccc(NCc4cnc(-c5ccccc5Cl)o4)c3C2=O)C(=O)N1 (stereo not drawn) [Example 27] | 60 to 120 | –
< 15 | – | < 1000 | – | – | Cc1ccc(-c2ncc(CNc3cccc4c3C(=O)N(C3CCC(=O)NC3=O)C4=O)s2)cc1 (stereo not drawn) [Example 29] | > 120 | –
15 to 30 | – | 1000 to 20000 | – | – | N#Cc1cccc(-c2ncc(CNc3cccc4c3C(=O)N(C3CCC(=O)NC3=O)C4=O)s2)c1 (stereo not drawn) [Example 30] | > 120 | –
< 15 | – | < 1000 | – | – | O=C1CCC(N2C(=O)c3cccc(NCc4cnc(-c5ccc(Cl)cc5)s4)c3C2=O)C(=O)N1 (stereo not drawn) [Example 32] | 60 to 120 | –
30 to 150 | – | < 1000 | – | – | O=C1CCC(N2C(=O)c3cccc(NCc4ncc(-c5ccc(F)cc5)s4)c3C2=O)C(=O)N1 (stereo not drawn) [Example 34] | > 120 | –
< 15 | – | < 1000 | – | – | O=C1CCC(N2C(=O)c3cccc(NCc4cnc(-c5ccc(OC(F)(F)F)cc5)s4)c3C2=O)C(=O)N1 (stereo not drawn) [Example 35] | < 60 | –
15 to 30 | – | < 1000 | – | – | COc1ccc(-c2ncc(CNc3cccc4c3C(=O)N(C3CCC(=O)NC3=O)C4=O)s2)c(OC)c1 (stereo not drawn) [Example 36] | > 120 | –
15 to 30 | – | 1000 to 20000 | – | – | CC(C)(C)C(=O)OCN1C(=O)CCC(N2C(=O)c3cccc(NCc4cnc(C5CCN(C(=O)C(C)(C)C)CC5)o4)c3C2=O)C1=O (stereo not drawn) [Example 41] | > 120 | –
15 to 30 | – | 1000 to 20000 | – | – | [2H]c1c([2H])c([2H])c(-c2ncc(CNc3cccc4c3C(=O)N(C3CCC(=O)NC3=O)C4=O)s2)c([2H])c1[2H] (stereo not drawn) [Example 46] | > 120 | –

Further lines, the compound ahead of its results:

Structure (SMILES) | IC50 (MM.1S cells; [1]) [nM] | IC50 (MM.1S cells; [2]) [nM] | IC50 (MV-4-11 cells; [5]) [nM] | IC50 (MV-4-11 cells; [6]) [nM] | IC50 (MV-4-11 cells; MV4-11, Table 4, values in μM, read-out: Inhibitory Activity of Compounds on Cell Proliferation MV-4-11 IC50) [nM] | IC50 (Mino cells; [3]) [nM] | IC50 (Mino cells; [4]) [nM]
CC(C)(C)C(=O)N1CCC(c2ncc(CNc3cccc4c3C(=O)N(C3CCC(=O)NC3=O)C4=O)o2)CC1 (stereo not drawn) [Example 9] | < 15 | 8.8 | < 1000 | 782 | – | > 120 | 141
CC1(C(=O)N2CCC(c3ncc(CNc4cccc5c4C(=O)N(C4CCC(=O)NC4=O)C5=O)o3)CC2)CCCCC1 (stereo not drawn) [Example 10] | < 15 | – | 1000 to 20000 | – | – | 60 to 120 | –
O=C1CCC(N2C(=O)c3cccc(NCc4cnc(C5CCN(C(=O)CC67CC8CC(CC(C8)C6)C7)CC5)o4)c3C2=O)C(=O)N1 (stereo not drawn) [Example 11] | < 15 | – | < 1000 | – | – | < 60 | –
N#Cc1ccc(CN2CCC(c3ncc(CNc4cccc5c4C(=O)N(C4CCC(=O)NC4=O)C5=O)o3)CC2)c(F)c1 (stereo not drawn) [Example 13] | 30 to 150 | – | 1000 to 20000 | – | – | > 120 | –
O=C1CCC(N2C(=O)c3cccc(NCc4cnc(C5CCN(Cc6ccc(OC(F)(F)F)cc6)CC5)o4)c3C2=O)C(=O)N1 (stereo not drawn) [Example 14] | 15 to 30 | – | < 1000 | – | – | 60 to 120 | –
O=C1CCC(N2C(=O)c3cccc(NCc4cnc(-c5ccc(OC(F)(F)F)cc5)o4)c3C2=O)C(=O)N1 (stereo not drawn) [Example 15] | < 15 | 6.4 | < 1000 | 750 | – | 60 to 120 | 60.5
COc1ccc(-c2ncc(CNc3cccc4c3C(=O)N(C3CCC(=O)NC3=O)C4=O)o2)cc1 (stereo not drawn) [Example 16] | < 15 | – | < 1000 | – | – | < 60 | –
O=C1CCC(N2C(=O)c3cccc(NCc4cnc(-c5cccc(-c6ccccc6)c5)o4)c3C2=O)C(=O)N1 (stereo not drawn) [Example 18] | < 15 | – | < 1000 | – | – | < 60 | –
Cc1cccc(-c2ncc(CNc3cccc4c3C(=O)N(C3CCC(=O)NC3=O)C4=O)o2)c1 (stereo not drawn) [Example 20] | < 15 | – | < 1000 | – | – | < 60 | –
O=C1CCC(N2C(=O)c3cccc(NCc4cnc(-c5ccc(Br)cc5)o4)c3C2=O)C(=O)N1 (stereo not drawn) [Example 23] | < 15 | – | < 1000 | – | – | > 120 | –
Cc1ccc(-c2cnc(CNc3cccc4c3C(=O)N(C3CCC(=O)NC3=O)C4=O)o2)cc1 (stereo not drawn) [Example 24] | 15 to 30 | – | < 1000 | – | – | > 120 | –
O=C1CCC(N2C(=O)c3cccc(NCc4cnc(-c5ccc(Cl)cc5)o4)c3C2=O)C(=O)N1 (stereo not drawn) [Example 25] | < 15 | < 15 | < 1000 | – | < 1000 | < 60 | < 60
O=C1CCC(N2C(=O)c3cccc(NCc4cnc(-c5cccc(F)c5)s4)c3C2=O)C(=O)N1 (stereo not drawn) [Example 28] | 30 to 150 | – | 1000 to 20000 | – | – | > 120 | –
C=Cc1ccc(-c2ncc(CNc3cccc4c3C(=O)N(C3CCC(=O)NC3=O)C4=O)s2)cc1 (stereo not drawn) [Example 31] | < 15 | – | < 1000 | – | – | < 60 | –
N#Cc1ccc(-c2ncc(CNc3cccc4c3C(=O)N(C3CCC(=O)NC3=O)C4=O)s2)cc1 (stereo not drawn) [Example 33, 4-(5-(((2-(2,6-dioxopiperidin-3-yl)-1,3-dioxoisoindolin-4-yl)amino)methyl)thiazol-2-yl)benzonitrile] | < 15 | – | < 1000 | – | – | 60 to 120 | –
CC(C)(C)C(=O)OCN1C(=O)CCC(N2C(=O)c3cccc(NCc4cnc(-c5ccc(C(F)(F)F)cc5)s4)c3C2=O)C1=O (stereo not drawn) [Example 39] | 15 to 30 | – | < 1000 | – | – | 60 to 120 | –
CC(C)(C)C(=O)OCN1C(=O)CCC(N2C(=O)c3cccc(NCc4cnc(-c5ccc(Cl)cc5)o4)c3C2=O)C1=O (stereo not drawn) [Example 40, (3-(4-(((2-(4-Chlorophenyl)-5-oxazolyl)methyl)amino)-1,3-dioxoisoindol-2-yl)-2,6-dioxopiperidin-1-yl)methyl Neopentyl Ester] | 30 to 150 | – | < 1000 | – | – | > 120 | –
O=C1CCC(N2C(=O)c3cccc(NCc4cnc(-c5ccc(Cl)cn5)s4)c3C2=O)C(=O)N1 (stereo not drawn) [Example 43] | < 15 | – | < 1000 | – | – | > 120 | –
O=C1CCC(N2C(=O)c3cccc(NCc4cnc(-c5ccc(Cl)nc5)o4)c3C2=O)C(=O)N1 (stereo not drawn) [Example 44] | 30 to 150 | – | > 20000 | – | – | > 120 | –
